Assay results: publication PMC8585833, “Serum concentrations of antidepressants, antipsychotics, and antiepileptics over the bariatric surgery procedure” (European Journal of Clinical Pharmacology, 2021)
Read-outs that look alike come from different tables or passages of the source.

What was measured:
[1] = Dose-adjusted steady-state trough serum concentrations before and after low-calorie diet and bariatric surgery; assay type: in vivo, human
From the text: We designed the study as a naturalistic longitudinal, prospective case series with intra-individual comparisons of drug concentrations over time, before and up to 1 year after the surgical procedure.
The participants contributed blood samples to the current study during routine pre-surgery visits before, and post-surgery visits about 8 weeks, 6 months, and 1 year after, the surgery. Pre-surgery sampling generally occurred twice: at an initial preoperative assessment visit, and just before surgery. Between these visits, that is, before surgery, patients were required to adhere to a low-calorie diet and show a weight reduction. The samples were stored as serum in −80 °C at a biobank, and analysed after all samples had been collected.
Before every routine visit at which the sampling was to occur, we contacted the participants by telephone to systematically obtain information on the current dose as well as adherence to the drug treatment in question over the 2 preceding weeks. Samples were excluded from the data set if non-adherence less than four elimination half-lives prior to sampling was reported; exceptions were made for occasional missed doses of fluoxetine. Half-lives applied were those described for a drug or its metabolite in the summary of product characteristics. We also asked for and recorded concomitant drug treatment, weight, and smoking status. To be able to relate potential changes in concentration to health consequences, we asked the participants during the follow-up phone calls, using an open question, if anything had happened to their health since the last visit. To obtain trough blood concentrations, we strived to schedule the routine visits before lunchtime and the participants were instructed not to take morning tablets before the sampling.
Specific substances were analysed concomitantly, using clinical routine methods, at accredited laboratories at the Department of Clinical Chemistry, Sahlgrenska University Hospital, Gothenburg, Sweden, or (as for gabapentin, hydroxybupropion, mianserine, pregabalin, paroxetine and topiramate) at the Department of Clinical Pharmacology, St. Olav’s Hospital, Trondheim, Norway. Analysis methods were based on liquid chromatography/tandem mass spectrometry or (for lamotrigine and valproic acid) enzyme immunoassay.
(§1) Statistical analyses were performed using SPSS, version 23.0 (IBM SPSS Statistics for Windows, Armonk, NY, USA). Participants treated with the same substance before and after surgery, with one or more trough sample concentrations available, were included in the analysis. To allow interindividual and intraindividual comparisons, serum concentrations were adjusted for defined daily dose (DDD). For example, since DDD for citalopram is 20 mg, a DDD-adjusted citalopram concentration of 100 nmol/L could represent a measured concentration of 50, 100, or 200 nmol/L, given a daily dose of 10, 20, or 40 mg, respectively. To compare pre- to post-surgery concentrations, as well as pre- to post-diet concentrations, we used Wilcoxon signed rank test for substances with samples available for six or more individuals. We used Spearman’s correlation to explore the relationship between the ratio of the post-/pre-diet concentrations and (i) the distribution coefficient for the drug in question, i.e., the logarithm of the ratio of its concentration in a lipophilic and a hydrophilic solution (logD), as well as (ii) the weight loss in kilograms for pregabalin.

[2] = Distribution coefficient (logD), octanol/water; assay type: physicochemical; settings: two-phase system, pH 7.4; from logD
Method: as §1

[3] = source not stated, cited from earlier work
[4] = historical data or matched non-surgery subjects as controls; cited from earlier work

SMILES	Dose-adjusted drug concentration Median (IQR), Pre-diet/pre-surgery ([1]; human, in vivo)	Dose-adjusted drug concentration Median (IQR), post-diet ([1]; human, in vivo)	Dose-adjusted drug concentration Median (IQR), pre-diet ([1]; human, in vivo)	Dose-adjusted drug concentration Median (IQR), Post-surgery ([1]; human, in vivo, 379 days after surgery (median), trough)	Abundance in octanol relative to water [2]	logD ([3]; octanol/water, pH 7.4)	Concentration change after the bariatric surgery procedure [4]	logD ([3]; selection limit for extremely hydrophilic or extremely lipophilic substances in literature search)	Dose-adjusted drug concentration Median (IQR), Pre-diet/pre-surgery ([1]; Table 2A, antiepileptics, trough serum, adjusted for dose in DDDs)	Dose-adjusted drug concentration Median (IQR), post-diet ([1]; Table 2B, antiepileptics, trough serum, adjusted for dose in DDDs, after pre-surgery low-calorie diet)	Dose-adjusted drug concentration Median (IQR), pre-diet ([1]; Table 2B, antiepileptics, trough serum, adjusted for dose in DDDs, before low-calorie diet)	Change in dose-adjusted concentration over the pre-surgery low-calorie diet ([1]; after the pre-surgery diet, before surgery, median weight reduction 6 kg)	concentration at 379 days after surgery (median), trough ([1]; human, in vivo, Table 2A, antiepileptics, trough serum, adjusted for dose in DDDs, last observation carried forward, median 379 days after surgery, read-out: Dose-adjusted drug concentration Median (IQR), Post-surgery) [µM]	Abundance in water relative to octanol [2] [fold]
CN1CCN2c3ccccc3Cc3ccccc3C2C1 (stereo not drawn) [Mianserine]	255 (N/A) nmol/L	201 (N/A) nmol/L	255 (N/A) nmol/L	183 (N/A) nmol/L	more than 1 000 fold	3.14								
C=CC[C@@H]1/C=C(\C)C[C@H](C)C[C@H](OC)[C@H]2O[C@@](O)(C(=O)C(=O)N3CCCC[C@H]3C(=O)O[C@H](/C(C)=C/[C@@H]3CC[C@@H](O)[C@H](OC)C3)[C@H](C)[C@@H](O)CC1=O)[C@H](C)C[C@@H]2OC [tacrolimus]							appeared to decrease	> 4						
CC(C)C[C@H](CN)CC(=O)O [Pregabalin]						−1.35			8.5 (5.8–16) µmol/L	25 (8–33) µmol/L	9.5 (7–21) µmol/L	increased	13	> 20
